Series [1] in a line: Acute toxicity (LD 50%, semi-logarithmic technique of Lichfield and Wilcoxon). Type of series: in vivo. The conditions noted are these: for LD50: in vivo. The text has this:
Each value represents the LD 50% expressed as mg/kg, according to the semi-logarithmic technique disclosed by Lichfield and Wilcoxon.

Series [2] concerns surface anesthesia in rabbits. Description: Surface anesthesia in rabbits compared to Butacaine. Type of series: in vivo. Conditions: Butacaine = 1.
In series [3] the test system is conduction anesthesia in guinea-pigs. Kind of series: Conduction anesthesia in guinea-pigs compared to Xylocaine. Format: in vivo. Conditions: Xylocaine = 1.
For series [4], the system named is BaCl2 -induced contraction of the duodenum. Description: Antispasmodic activity compared to Papaverine (BaCl2-induced contraction of the duodenum). The conditions noted are these: Papaverine = 1.
In series [5] the test system is aconitine-induced rhythm disorders. Description: Preventive action on aconitine-induced rhythm disorders. Format: in vivo, rats. The conditions noted are these: Aconitine 50mg/l, 0.2ml/mn, ±SD, control 85±15. The protocol:
(§1) a. Two Examples are given to show the preventive action, by the intravenous route:
2. in rats, on aconitine-induced rhythm disorders.
(§2) The various compounds of the above Table are administered just prior to
(§3) perfusion of the arrhythmogenic materials (K-Strophantine,
(§4) K-Strophantine-Adrenaline, Aconitine). The values represent the period of
(§5) time ± SD (standard deviation) before the first signs of arrhythmia

The subject of series [6] is arrhythmia induced by Strophantine in combination with adrenaline. Description: Preventive action on arrhythmia induced by perfusion of K-Strophantine in combination with adrenaline. Type of series: in vivo, guinea-pits. Conditions: K-Strophantine 0.I5mg/ml + Adrenaline 5μg/ml, ±SD, control 1.21±0.33. The protocol:
as §1
(§6) 1. in guinea-pits, on arrhythmia induced by Strophantine alone or in combination with adrenaline;
as §2, §3, §4, §5

For series [7], the system named is arrhythmia induced by Strophantine alone. Description: Preventive action on arrhythmia induced by perfusion of K-Strophantine alone. Type of series: in vivo, guinea-pits. Conditions: K-Strophantine 0.I5mg/ml, 0.5ml/mn, ±SD, control 2.45±0.22. On the procedure: as §1, §6, §2, §3, §4, §5
Series [8] is described as follows: Chronic toxicity, oral, 3 months, young adult rats. Type of series: in vivo, rats of Sprague Dawley (Charles River) strain. The conditions noted are these: oral, 25, 75 and 150 mg/kg during 3 months. The protocol: The compound of Example 1 was administered orally to young adult rats of Sprague Dawley (Charles River) strain, at dosages of 25, 75 and 150 mg/kg during 3 months.

Series [9] in a line: Chronic toxicity, intravenous, 1 month, young male adult mice. Format: in vivo. The conditions noted are these: 1 and 5 mg/kg during 1 month. The protocol: The compound of Example 1 was also administered intravenously to young male adult mice, at dosages of 1 and 5 mg/kg during 1 month.
The subject of series [10] is disorders of the cardiac rhythm. Kind of series: Clinical tests, oral administration in patients suffering from disorders of the cardiac rhythm. Format: in vivo. Conditions: oral, 200, 400 and 600 mg.
Series [11] has as its system disorders of the cardiac rhythm in non-anesthetized dogs 24 hours after coronary ligation. Kind of series: Curative activity on disorders of the cardiac rhythm 24 hours after coronary ligation (method according to Harris). Type of series: in vivo. Conditions: for Percent sinus rhythm after administration of the compound: extreme values in parenthesis. The source says:
b. An Example is given to show the curative activity by the oral route.
As is apparent from following Table IV, the effect is a function of the disage administered.

[12] abbreviates: oral route, read-out: LD50, oral route.
Where [13] appears, read: intravenous route, read-out: LD50, intravenous route.

Counter-ions that a name gives are not always drawn. Like-named read-outs stand apart in the source and are kept apart here.

As a reminder, the LD50 is the dose at which mortality reaches 50%. For the compound `CN1CCN(CC(O)CNc2nc(-c3ccccc3)no2)CC1` (stereo not drawn) [Example 10], the LD50 in series [1] (setting [12]) is 750 mg/kg. In addition, the “insoluble (entry in place of the intravenous LD50)” value in series [1] (intravenous route) is given as “inso-”.

Regarding `CCN(CC)CC(O)CNc1nc(-c2ccc(F)cc2)no1` (stereo not drawn) [Example 4, 5-(3-diethylamino-2-hydroxy-propyl)-amino-3-(4-fluorophenyl)-1,2,4-oxadiazole fumarate], in series [2], the “Ratio between the activity of compound (I) and the activity of Butacaine for surface anesthesia, on administration of a same dosage” value is 1.4. For the same compound, the LD50 in series [1] (setting [12]) was 750 mg/kg. In [3], the “Ratio between the activity of compound (I) and the activity of Xylocaine for conduction anesthesia, on administration of a same dosage” value turned out to be 1.5.

As to `C=CCN(CC(O)CN(CC)CC)c1nc(-c2ccccc2)no1` (stereo not drawn) [Example 8], the “Ratio between the activity of compound (I) and the activity of Butacaine for surface anesthesia, on administration of a same dosage” value in series [2] turned out to be 1.5. In addition, the “Ratio between the dosage of Papaverine and the dosage of Compound (1) producing the same antispasmodic activity” value (“Ratio between the dosage” for short) in series [4] is listed as 2.5. For the same compound, the “Ratio between the activity of compound (I) and the activity of Xylocaine for conduction anesthesia, on administration of a same dosage” value in [3] was 1.

As to `CCN(CC)CC(O)CNc1nc(-c2ccccc2)no1` (stereo not drawn) [Example 2], the “Ratio between the activity of compound (I) and the activity of Butacaine for surface anesthesia, on administration of a same dosage” value in [2] stood at 1. For the same compound, the “period of time before the first signs of arrhythmia appear” value (shortened to “period”) in [5] (10 mg/kg intravenous) worked out at 155 ± 32 s; in series [6] (10 mg/kg intravenous), 2.73±0.5 decimal minutes; in [7] (10 mg/kg intravenous) it was 3.04±0.52 decimal minutes. For the same compound, the LD50 is 55 mg/kg in [1] (setting [13]) and 700 mg/kg in series [1] (setting [12]). Also, the “Ratio between the dosage” value in series [4] worked out at 1. Besides, in series [3], the “Ratio between the activity of compound (I) and the activity of Xylocaine for conduction anesthesia, on administration of a same dosage” value was determined as 1.4.

Take `CCCN(CCC)CC(O)CN(C)c1nc(-c2ccccc2)no1` (stereo not drawn) [Example 9, 5-N-(3-dipropylamino-2-hydroxy-propyl)-N-methylamino-3-phenyl-1,2,4-oxadiazole fumarate hydrate]: the “Ratio between the activity of compound (I) and the activity of Butacaine for surface anesthesia, on administration of a same dosage” value in series [2] turned out to be 1.65. The LD50 was found to be 50 mg/kg in series [1] (setting [13]) and 250 mg/kg in series [1] (setting [12]). In series [6] (2.5 mg/kg intravenous), the “period” value amounted to 1.77±0.08 decimal minutes. In addition, the “Ratio between the dosage” value in series [4] is listed as 4. Besides, the “Ratio between the activity of compound (I) and the activity of Xylocaine for conduction anesthesia, on administration of a same dosage” value in [3] came out at 1.6.

As for `CCCN(CC(O)CN(CC)CC)c1nc(-c2ccccc2)no1` (stereo not drawn) [Example 7, 5-[N-(3-diethylamino-2-hydroxy-propyl)-N-propyl]amino-3-phenyl-1,2,4-oxadiazole fumarate hydrate], the results for the “period” value in series [5] (2.5 mg/kg intravenous), in [6] (2.5 mg/kg intravenous) and in [7] (2.5 mg/kg intravenous) were 185 ± 48 s, 1.74±0.16 decimal minutes and 2.85±0.1 decimal minutes, respectively. Also, the LD50 in [1] (setting [12]) was 250 mg/kg. Moreover, in [1] (intravenous route), the “insoluble (entry in place of the intravenous LD50)” value was “inso-”.

For the compound `CCN(CC)CC(O)CN(C)c1nc(-c2ccncc2)no1` (stereo not drawn) [Example 11], in series [2], the “Ratio between the activity of compound (I) and the activity of Butacaine for surface anesthesia, on administration of a same dosage” value turned out to be 1.5. Moreover, the results for the “period” value in series [5] (20 mg/kg intravenous) and in series [6] (10 mg/kg intravenous) were 129 ± 21 s and 1.3±0.3 decimal minutes, respectively. Further, the LD50 in series [1] (setting [13]) turned out to be 100 mg/kg; in series [1] (setting [12]) it was 750 mg/kg. In series [4], the “Ratio between the dosage” value turned out to be 0.2. Besides, the “Ratio between the activity of compound (I) and the activity of Xylocaine for conduction anesthesia, on administration of a same dosage” value in [3] turned out to be 1.

As for `COc1ccc(Cc2nccc3cc(OC)c(OC)cc23)cc1OC` [Papaverine, reference compound], the “Ratio between the dosage” value in series [4] was 1.

In the case of `CCN(CC)CC(O)CN(C)c1nc(-c2ccccc2)no1` (stereo not drawn) [Example 1, 5-N-(3-diethylamino-2-hydroxy-propyl)-N-methylamino-3-phenyl-1,2,4-oxadiazole fumarate hydrate], the “change of weight of the organs on autopsy” value in [8] is “No change of weight of the organs was found”. Also, in series [8], the “hematologic examination, biochemical blood tests and urinalysis” value was “No anomaly was detected”. Moreover, the “histological anomaly on anatomicopathological examination” value in series [8] is “No histological anomaly, and particularly no liver, kidney or brain injury was found”. Further, the “Ratio between the activity of compound (I) and the activity of Butacaine for surface anesthesia, on administration of a same dosage” value in series [2] was determined as 1.5. Moreover, the “period” value amounted to 141 ± 28 s in series [5] (5 mg/kg intravenous); 126 ± 23 s in series [5] (10 mg/kg intravenous); 1.62±0.42 decimal minutes in series [6] (10 mg/kg intravenous); 3.27±0.4 decimal minutes in series [7] (5 mg/kg intravenous); 3.18±0.33 decimal minutes in [7] (10 mg/kg intravenous). In addition, in series [9], the “glycemia and serum transaminase level” value was “comparable in the treated animals and in the control animals”. In addition, the hematological examination entry in [9] is reported as “No substantial modifications were found”. In series [9], the “histological anomaly on autopsy” value was “No histological anomaly was found on autopsy, particularly no cytologic injury of the liver, the kidneys, the pancreas, the heart or the brain”. Moreover, in [9], the “local tolerance of the injections” value is “well tolerated locally”. Further, the values for the LD50 in series [1] (setting [13]) and in series [1] (setting [12]) were 30 mg/kg and 280 mg/kg, respectively. For the same compound, the “effects in patients suffering from disorders of the cardiac rhythm” value in series [10] was “beneficial effects”. Also, the Tolerance result in series [10] (patients) is listed as “good”. Besides, in [4], the “Ratio between the dosage” value came to 1.5. In addition, the “Percent sinus rhythm after administration of the compound” value in series [11] (10 mg/kg oral, 3 tests, prior to administration 5%(0-15%)) is on record as 25%(0-65%); in series [11] (25 mg/kg oral, 8 tests, prior to administration 5.6% (0-18%)), 59%(5-100%); in [11] (50 mg/kg oral, 6 tests, prior to administration 7.6% (0-20%)) it was 71.6% (25-100%). Moreover, in series [11] (non-anesthetized dogs, oral route), the “curative activity on disorders of the cardiac rhythm after coronary ligation (in words)” value is “corrects the disorders of the cardiac rhythm”. The “Ratio between the activity of compound (I) and the activity of Xylocaine for conduction anesthesia, on administration of a same dosage” value in series [3] worked out at 1.

On to `CCN(CC)CC(O)CN(CC)c1nc(-c2ccccc2)no1` (stereo not drawn) [Example 5], for which the “Ratio between the activity of compound (I) and the activity of Butacaine for surface anesthesia, on administration of a same dosage” value in [2] is on record as 1.7. The figures for the “period” value in series [5] (5 mg/kg intravenous), in series [6] (5 mg/kg intravenous) and in [7] (5 mg/kg intravenous) were 119 ± 15.5 s, 1.60±0.35 decimal minutes and 3.43±0.51 decimal minutes, respectively. The figures for the LD50 in series [1] (setting [13]) and in [1] (setting [12]) were 18 mg/kg and 200 mg/kg, respectively. The “Ratio between the dosage” value in [4] was determined as 3. For the same compound, the “Ratio between the activity of compound (I) and the activity of Xylocaine for conduction anesthesia, on administration of a same dosage” value in series [3] was 1.7.

With `CCNCC(O)CN(CC)c1nc(-c2ccccc2)no1` (stereo not drawn) [Example 12], the “Ratio between the activity of compound (I) and the activity of Butacaine for surface anesthesia, on administration of a same dosage” value in series [2] is given as 1. The “Ratio between the dosage” value in series [4] was 0.8. In [3], the “Ratio between the activity of compound (I) and the activity of Xylocaine for conduction anesthesia, on administration of a same dosage” value stood at 1.65.

(Values after patent US4089966A, “5-N-(3-Amino-2-hydroxy-propyl)-amino-1,2,4-oxadiazole derivatives, processes for their preparation and applications thereof” (Aron Sarl, priority 1975, dated 1978).)
